# Laboratory results: ChEMBL document CHEMBL5331075, “New antileishmanial quinoline linked isatin derivatives targeting DHFR-TS and PTR1: Design, synthesis, and molecular modeling studies” (Eur J Med Chem, 2023)
# Key:
# Leishmania major [1] = assay: Antileishmanial activity against Leishmania major promastigotes assessed as parasite growth inhibition incubated for 24 hrs by Alamar blue staining based assay; assay type: functional, organism-based
# Leishmania major [2] = assay: Antileishmanial activity against Leishmania major amastigotes assessed as parasite growth inhibition incubated for 72 hrs by resazurin dye based assay; assay type: functional, organism-based
# Leishmania major [3] = assay: Antileishmanial activity against Leishmania major promastigotes assessed as parasite growth inhibition at 20 uM incubated for 48 hrs in presence of folic acid relative to control; assay type: functional; set-up: scale not given: the % may be the effect or the level left
# Leishmania major [4] = assay: Antileishmanial activity against Leishmania major promastigotes assessed as parasite growth inhibition incubated for 48 hrs; assay type: functional; set-up: scale not given: the % may be the effect or the level left
# Leishmania major [5] = assay: Antileishmanial activity against Leishmania major promastigotes assessed as parasite growth inhibition at 100 uM incubated for 48 hrs in presence of folinic acid relative to control; assay type: functional; set-up: scale not given: the % may be the effect or the level left
# [6] = Cytotoxicity against African green monkey Vero cells assessed as reduction in cell viability incubated for 72 hrs by crystal violet staining based analysis; assay type: toxicity; conditions: chlorocebus sabaeus
# Leishmania major [7] = assay: Antileishmanial activity against Leishmania major promastigotes assessed as parasite growth inhibition at 20 uM incubated for 48 hrs in presence of folinic acid relative to control; assay type: functional; set-up: scale not given: the % may be the effect or the level left
# [8] = Selectivity index, ratio of CC50 for cytotoxicity against African green monkey Vero cells to IC50 for antileishmanial activity against Leishmania major amastigotes assessed as parasite growth inhibition; assay type: toxicity, cell-based; conditions: read-out: Ratio CC50/IC50
# Leishmania major [9] = assay: Antileishmanial activity against Leishmania major promastigotes assessed as parasite growth inhibition at 100 uM incubated for 48 hrs in presence of folic acid relative to control; assay type: functional; set-up: scale not given: the % may be the effect or the level left
SMILES,IC50 (Leishmania major [1]) [µM],IC50 (Leishmania major [2]) [µM],other results
O=C1/C(=N/Nc2ccnc3cc(Cl)ccc23)c2cc(Br)ccc2N1Cc1ccccc1,5.95,8.29,
CC(C)CN1C(=O)/C(=N/Nc2ccnc3cc(Cl)ccc23)c2cc(Cl)ccc21,3.5,6.03,
CCN1C(=O)/C(=N\Nc2ccnc3cc(Cl)ccc23)c2ccccc21,3.45,5.85,
O=C1Nc2c(F)cccc2/C1=N/Nc1ccnc2cc(Cl)ccc12,1.1,1.1,
CCCN1C(=O)/C(=N/Nc2ccnc3cc(Cl)ccc23)c2ccccc21,3.16,5.49,
CN1C(=O)/C(=N/Nc2ccnc3cc(Cl)ccc23)c2cc(Br)ccc21,1.74,3.46,
CCN1C(=O)/C(=N/Nc2ccnc3cc(Cl)ccc23)c2cc(Cl)ccc21,2.96,4.34,
CCCN1C(=O)/C(=N/Nc2ccnc3cc(Cl)ccc23)c2cc(Cl)ccc21,2.99,4.99,
O=C1/C(=N/Nc2ccnc3cc(Cl)ccc23)c2ccccc2N1Cc1ccccc1,3.97,6.88,
O=C1Nc2ccc(Cl)cc2/C1=N/Nc1ccnc2cc(Cl)ccc12,0.67,1.26,
CCN1C(=O)/C(=N/Nc2ccnc3cc(Cl)ccc23)c2cc(Br)ccc21,3.21,5.12,
CN1C(=O)/C(=N\Nc2ccnc3cc(Cl)ccc23)c2ccccc21,1.88,3.49,
O=C1Nc2ccc(F)cc2/C1=N/Nc1ccnc2cc(Cl)ccc12,0.557,0.721,Activity (Leishmania major [3]): 80%; Activity (Leishmania major [4]): 25%; Activity (Leishmania major [5]): 94%; CC50 at 72 h [6]: 184 µM; Activity (Leishmania major [7]): 84%; selectivity ratio [8]: 255; Activity (Leishmania major [9]): 90%
CN1C(=O)/C(=N/Nc2ccnc3cc(Cl)ccc23)c2cc(Cl)ccc21,1.87,3.25,
CC(C)CN1C(=O)/C(=N\Nc2ccnc3cc(Cl)ccc23)c2ccccc21,2.67,3.99,
O=C1Nc2ccccc2/C1=N/Nc1ccnc2cc(Cl)ccc12,0.986,2.45,
O=C1/C(=N/Nc2ccnc3cc(Cl)ccc23)c2cc(Cl)ccc2N1Cc1ccccc1,4,5.3,
O=C1Nc2ccc(OC(F)(F)F)cc2/C1=N/Nc1ccnc2cc(Cl)ccc12,0.668,0.944,Activity (Leishmania major [3]): 86%; Activity (Leishmania major [4]): 28%; Activity (Leishmania major [5]): 98%; CC50 at 72 h [6]: 308 µM; Activity (Leishmania major [7]): 96%; selectivity ratio [8]: 326; Activity (Leishmania major [9]): 93%
CC(C)CN1C(=O)/C(=N/Nc2ccnc3cc(Cl)ccc23)c2cc(Br)ccc21,4.11,6.86,
O=C1Nc2ccc(Br)cc2/C1=N/Nc1ccnc2cc(Cl)ccc12,0.508,0.604,Activity (Leishmania major [3]): 74%; Activity (Leishmania major [4]): 21%; Activity (Leishmania major [5]): 91%; CC50 at 72 h [6]: 156 µM; Activity (Leishmania major [7]): 76%; selectivity ratio [8]: 258; Activity (Leishmania major [9]): 87%
COc1cc(Cc2cnc(N)nc2N)cc(OC)c1OC [TRIMETHOPRIM],,,Activity (Leishmania major [4]): 71%; Activity (Leishmania major [9]): 99%
